Starred links: 1 amine or outer side, 2 acyl side, 3 side chain; linkers in the order of their positions; H or OH if unused. Positions of bridges follow the written chain, without caps; N, C: chain ends. Non-standard residues stand in square brackets, D forms with d. Residues, ends and D or L forms follow the SMILES beside them. *: point of attachment. Ileψ(thiazoline)Cys = CC[C@H](C)[C@H](N)C1=N[C@H](C(=O)*)CS1; X2 = CCC(=O)CC(O)C[C@@H](C)C[C@H](N[*:1])C(=O)[*:2]; Alaψ(CH2NMeCH2CH2OH) = C[C@@H](CN(C)CCO)N*; dOrn = NCCC[C@@H](N)C(=O)O; X1 = CCCCCCCCC(C)C(=O)*; Aib = CC(C)(N)C(=O)O
Experiments:
[1] = system: C. albicans tet-NRG1 strain filamentation; format: cell-based, Candida albicans; settings: YPD plus DOX, dose response
[2] = system: C. albicans wild-type strain SC5314 biofilm formation; test: microbe, parasite or virus in culture; format: cell-based, Candida albicans; settings: for Inhibition of biofilm formation: NCI Natural set, dose response; for IC50: SC5314, 24 h
in vitro = settings: human
C. albicans = settings: cited from earlier work
[3] = system: Human hepatocellular carcinoma (HepG2) cells

With CC(=O)O[C@@H]1C[C@H]2O[C@@H]3C=C(C)CC[C@]3(C)[C@]1(C)[C@]21CO1 [Compound 1, Trichoderonin] the “Inhibition of filamentation” value [1] was “inhibited filamentation in a dose-response manner”.
With COc1ccc(C[C@H]2NC[C@H](O)[C@H]2OC(C)=O)cc1 [Compound 2, Anisomycin] the “Inhibition of biofilm formation” value [2] was “inhibited biofilm formation only”.
In the case of CC[C@H](C)[C@H](N)C1=N[C@H](C(=O)N[C@@H](CC(C)C)C(=O)N[C@H](CCC(=O)O)C(=O)N[C@H](C(=O)N[C@H]2CCCCNC(=O)[C@H](CC(N)=O)NC(=O)[C@@H](CC(=O)O)NC(=O)[C@H](Cc3cnc[nH]3)NC(=O)[C@@H](Cc3ccccc3)NC(=O)[C@H]([C@@H](C)CC)NC(=O)[C@@H](CCCN)NC2=O)[C@@H](C)CC)CS1 [Compound 4, Bacitracin] ({Ileψ(thiazoline)Cys}-L[dE]IK[dOrn]I[dF]H[dD]N; lactam 4-C (inferred)), the CC50 at 24 hr (in vitro) is reported as > 100000 nM.
In the case of CC[C@H](C)[C@H](N)C1=N[C@H](C(=O)N[C@@H](CC(C)C)C(=O)N[C@H](CCC(=O)O)C(=O)N[C@H](C(=O)N[C@H]2CCCCNC(=O)[C@H](CC(N)=O)NC(=O)[C@@H](CC(=O)O)NC(=O)[C@H](Cc3c[nH]cn3)NC(=O)[C@@H](Cc3ccccc3)NC(=O)[C@H]([C@@H](C)CC)NC(=O)[C@@H](CCCN)NC2=O)[C@@H](C)CC)CS1 [Compound 4, Bacitracin] ({Ileψ(thiazoline)Cys}-L[dE]IK[dOrn]I[dF]H[dD]N; lactam 4-C; N-terminus assumed), the “Inhibition of biofilm formation” value [2] is reported as “inhibited biofilm formation only” and the IC50 [2] is reported as 2130 nM.
For CO[C@H]1C[C@@H]2CC[C@@H](C)[C@@](O)(O2)C(=O)C(=O)N2CCCC[C@H]2C(=O)O[C@H]([C@H](C)C[C@@H]2CC[C@@H](O)[C@H](OC)C2)CC(=O)[C@H](C)/C=C(\C)[C@@H](O)[C@@H](OC)C(=O)[C@H](C)C[C@H](C)/C=C/C=C/C=C/1C [Compound 5, Rapamune (rapamycin, sirolimus)], the IC50 ([2]; Candida albicans) is given as 514 nM, the “Inhibition of filamentation” value [1] is given as “inhibited filamentation in a dose-response manner” and the “Effect on the morphogenic transition” value (C. albicans; most liquid hypha-inducing media, ref Bastidas, Heitman & Cardenas, 2009) is given as “no effect on the morphogenic transition”.
For CC(C)[C@@H]1NC(=O)[C@H](C)OC(=O)[C@@H](C(C)C)NC(=O)[C@@H](C(C)C)OC(=O)[C@H](C(C)C)NC(=O)[C@H](C)OC(=O)[C@@H](C(C)C)NC(=O)[C@@H](C(C)C)OC(=O)[C@H](C(C)C)NC(=O)[C@H](C)OC(=O)[C@@H](C(C)C)NC(=O)[C@@H](C(C)C)OC1=O [Compound 6, Valinomycin], the “Inhibition of biofilm formation” value [2] is listed as “inhibited biofilm formation only”, the “Inhibition of hyphal growth” value (C. albicans; C. albicans, ref Watanabe, Azuma, Igarashi & Ooshima, 2005) is listed as “inhibit hyphal growth” and the CC50 (in vitro) is listed as 2870 nM.
Molecule CC(NCCN(C)C)C1CCC2C3CCc4cc(O)ccc4C3CCC12C (stereo not drawn) [Compound 8, 17-[1-[2-(dimethylamino)ethylamino]ethyl]-13-methyl-6,7,8,9,11,12,14,15, 16,17-decahydrocyclopenta[a]phenanthren-3-ol] has an IC50 ([2]; Candida albicans) of 9.7 nM and a CC50 at 24 h (in vitro) of 8080 nM.
Molecule CC1OC(CC(=O)O)Cc2c(O)c3c(c(O)c21)C(=O)C=C(C1=CC(=O)c2c(O)c4c(c(O)c2C1=O)CC(CC(=O)O)OC4C)C3=O (stereo not drawn) [Compound 13, 2-[7-[3-(carboxymethyl)-5,10-dihydroxy-1-methyl-6,9-dioxo-3,4-dihydro-1H-benzo[g]isochromen-7-yl]-5,10-dihydroxy-1-methyl-6,9-dioxo-3,4-dihydro-1H-benzo[g]isochromen-3-yl]acetic acid] has an IC50 ([2]; Candida albicans) of 3310 nM.
Work on CCN(CC)CCN1c2ccccc2Sc2ccc3ccccc3c21 [Compound 14, 2-benzo[a]phenothiazin-12-yl-N,N-diethylethanamine] yielded an IC50 ([2]; Candida albicans) of 3800 nM.
In the case of CCCCCCCCC(C)C(=O)N1CCC[C@H]1C(=O)N[C@@H](C[C@H](C)CC(O)CC(=O)CC)C(=O)N[C@@H](C)C(=O)NC(C)(C)C(=O)NC(C)(C)C(=O)N[C@H](C(=O)N[C@@H](C)C(=O)NC(C)(C)C(=O)NC(C)(C)C(=O)N[C@@H](C)CN(C)CCO)C(C)C (stereo partly drawn) [Compound 19, Trichopolyn-B] (X1-P[X2]A[Aib][Aib]VA[Aib][Aib]-{Alaψ(CH2NMeCH2CH2OH)}; N-terminus and C-terminus assumed), the IC50 [2] is reported as 666 nM and the CC50 (in vitro) is reported as 2990 nM.
For CCCCCCCCCCCCCCC[C@@H](O)C[N+](C)(C)CCO [Compound 21, 2-hydroxyethyl-[(2R)-2-hydroxyheptadecyl]-dimethylazanium;iodide], the CC50 [3] was 10000 nM.
In the case of N#Cc1cn([C@@H]2O[C@H](CO)[C@@H](O)[C@H]2O)c2ncnc(N)c12 [Compound 23, Vengicide (Unamycin B, Toyocamycin)], the IC50 ([2]; Candida albicans) is reported as 1040 nM and the CC50 (in vitro) is reported as < 1560 nM.
For COc1cc2cc(C(=O)N3CC(COS(C)(=O)=O)c4ccc(O)cc43)[nH]c2c(OC)c1OC (stereo not drawn) [Compound 27, 6-Hydroxy-3-((methanesulfonyloxy) Methyl)-1-((5,6,7-trimethoxyindol-2-yl)carbonyl)indoline], the IC50 ([2]; Candida albicans) was 495 nM and the CC50 (in vitro) was < 1560 nM.
With CCCCCCCCCCCCCCC(O)C[N+](C)(CCO)CCO (stereo not drawn) [Compound 29, Hexadecanaminium, 2-hydroxy-N,N-bis(2-hydroxyethyl)-N-methyl-, chloride] the CC50 [3] was 13900 nM.
In the case of Nanaomycin [Compound 3], the “Inhibition of filamentation” value [1] is reported as “inhibited filamentation in a dose-response manner”.

From publication PMC3988658 (Pathogens and disease, 2014)
